IC50 data for twelve compounds are collected here from patent publication US12583841B2, “Tetrahydropyrrolocyclic compound and application thereof” (Breakthrough Pharmaceuticals Inc., priority 2021, dated 2026).

One may read the IC50 as the midpoint of a concentration-inhibition curve.

The target in assay [1] is T1, OX1R (Homo sapiens, UniProt O43613).
T1 construct: expressed in transfected cells
T1 sequence (O43613 1-425): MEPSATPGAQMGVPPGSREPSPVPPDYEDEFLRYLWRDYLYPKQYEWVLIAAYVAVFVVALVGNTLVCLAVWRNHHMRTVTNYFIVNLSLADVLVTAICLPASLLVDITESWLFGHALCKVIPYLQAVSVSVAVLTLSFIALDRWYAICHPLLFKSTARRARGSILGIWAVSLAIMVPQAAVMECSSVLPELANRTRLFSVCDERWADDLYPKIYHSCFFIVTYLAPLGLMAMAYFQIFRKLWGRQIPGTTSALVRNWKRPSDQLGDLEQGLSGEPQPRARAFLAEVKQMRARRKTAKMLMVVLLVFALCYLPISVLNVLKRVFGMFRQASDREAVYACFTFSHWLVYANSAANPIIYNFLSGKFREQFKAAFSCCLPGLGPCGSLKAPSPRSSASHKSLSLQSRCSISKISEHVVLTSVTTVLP
The experiment in a line: FLIPR intracellular calcium antagonism test, HEK293-OX1R cells. In kind it is cell-based. The settings on record: Orexin A at EC70, read-out: hOXIR IC50. On the procedure: (§1) The change of intracellular calcium signal was detected by FLIPR, and the antagonism of the compounds on OX1R and OX2R receptors was evaluated by using IC50 value of the compounds as an index.
(§2) • Cell lines: Transfected HEK293-OX1R and HEK293-OX2R stable cell lines • HEK293-OX1R cell culture medium (DMEM, Invitrogen #11960-044, 10% serum Gibco #10099141, L-Glutamine 1×, Gibco #25030, sodium pyruvate 1×, Gibco #11360, Geneticin 300 μg/mL, Gibco #10131) • HEK293-OX2R cell culture medium (DMEM, Invitrogen #11960-044, 10% serum Gibco #10099141, L-Glutamine 1×, Gibco #25030, sodium pyruvate 1×, Gibco #11360, Geneticin 300 μg/mL, Gibco #10131, Blasticin 2 μg/mL, Invitrogen #R21001)
(§3) Experimental Steps and Methods: • a) Cell seeding (HEK293-OX1R and HEK293-OX2R cells) • 1) preheating the culture medium, trypsin and DPBS under water bath at 37° C.; pipetting and removing the medium of cell culture and washing same with 10 mL of DPBS; • 2) adding the preheated trypsin to a culture flask, rotating the culture flask so that the trypsin evenly covered the culture flask, and putting the culture flask in a 37° C., 5% CO2 incubator for digestion for 1-2 min; • 3) suspending the cells with 10-15 mL of medium for each T150 and centrifuging at 800 rpm for 5 min; resuspending the cells with 10 mL of medium, pipetting 1 mL of the cell suspension and counting with Vi-cell; • 4) diluting OX1R cells with medium to 5×10^5 cells/mL, and diluting OX2R cells with medium to 4×10^5 cells/mL, and adding the diluted cells to 384 plate (Greiner.781946) with a multi-channel pipette (50 μL/well, 25000 cells/well for OX1R cells, 20000 cells/well for OX2R cells); placing the cell plate in a 37° C., 5% CO2 incubator overnight. • b) Compound loading: • 1) diluting the compound to 20 mM with DMSO, 3-fold dilution, 8 gradients, duplicate wells, and adding same to a compound plate with an Echo liquid handler; then adding 20 μL of buffer to maintain the final concentration of DMSO of 0.1%. • c) FLIPR experiment: • 1) washing off the cell culture medium in the 384 plate with a vacuum pump, adding […] Direct fluorescent dye, incubating in 37° C., 5% CO2 incubator for 1 h, and balancing at room temperature for another 10 min. • 2) EC50 test: manually diluting Orexin A on ice, 3-fold dilution, 8 gradients, duplicate wells; preparing a DMSO plate and keep the DMSO concentration to be 0.5%; putting the cell plate, OrexinA plate, and DMSO plate in FLIPR respectively, and reading the fluorescence value. • 3) calculating the EC70 value based on the EC50 value of Orexin A; preparing a 5×EC70 solution, adding same to 384 compound plate with a multi-channel pipette, and storing on ice; • 4) putting the compound plate, 5×EC70 plate, cell plate, and FLIPR tip in sequence in FLIPR, running the program, and reading the fluorescence value. • d) Data analyzing: using Prism5.0 to analyze the data, and calculating the IC50 value of the compound.
On the technique in general: Calcium assays in cells follow changes in intracellular calcium, usually with a dye or a luminescent sensor.

The target of assay [2] is T2, OX2R (Homo sapiens, UniProt O43614).
T2 construct: expressed in transfected cells
T2 sequence (O43614 1-444): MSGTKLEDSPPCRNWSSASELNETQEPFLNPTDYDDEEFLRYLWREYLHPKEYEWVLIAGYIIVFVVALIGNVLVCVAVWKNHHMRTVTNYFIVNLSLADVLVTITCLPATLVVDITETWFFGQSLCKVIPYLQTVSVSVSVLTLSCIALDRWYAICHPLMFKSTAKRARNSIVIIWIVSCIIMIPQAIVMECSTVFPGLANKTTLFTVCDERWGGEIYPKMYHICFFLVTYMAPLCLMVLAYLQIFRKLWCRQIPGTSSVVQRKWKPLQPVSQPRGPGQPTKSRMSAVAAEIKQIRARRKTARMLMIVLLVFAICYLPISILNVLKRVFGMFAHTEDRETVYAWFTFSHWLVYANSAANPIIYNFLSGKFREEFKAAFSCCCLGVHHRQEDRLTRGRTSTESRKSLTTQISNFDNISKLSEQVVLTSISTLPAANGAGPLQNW
The assay is described as follows: FLIPR intracellular calcium antagonism test, HEK293-OX2R cells. In kind it is cell-based. The settings on record: Orexin A at EC70, read-out: hOX2R IC50. The procedure: as §1, §2, §3

As for `COc1ccc2nc([C@@H]3[C@H]4C[C@H]4CN3C(=O)c3ccccc3-n3nccn3)[nH]c2c1` [Compound 1], the IC50 in assay [1] is more than 10000 nM; in assay [2], 25 nM.
In the same order, the values of `COc1ccc2nc([C@@H]3[C@H]4C[C@H]4CN3C(=O)c3cc(C)ccc3-n3nccn3)[nH]c2c1` [Compound 5] are 337 nM and 96 nM.
In the same order, the values of `COc1ccc2[nH]c([C@@H]3C[C@H]4C[C@H]4N3C(=O)c3c(F)cccc3-n3nccn3)nc2c1` [Compound 12] are 1280 nM and 81 nM.
In the same order, the values of `COc1ccc2[nH]c([C@@H]3C[C@H]4C[C@H]4N3C(=O)c3cc(Cl)ccc3-n3nccn3)nc2c1` [Compound 14] are 1040 nM and 30 nM.
As to `COc1ccc2[nH]c([C@@H]3C[C@H]4C[C@H]4N3C(=O)c3cc(C)ccc3-c3ncccn3)nc2c1` [Compound 13], the IC50 in assay [1] was found to be 2440 nM; in assay [2] it was 60 nM.
Taken in the same sequence, the figures for `COc1ccc2[nH]c([C@@H]3C[C@H]4C[C@H]4N3C(=O)c3ccc(C)cc3-n3nccn3)nc2c1` [Compound 10] were 710 nM and 17 nM.
Taken in the same sequence, the figures for `COc1ccc2nc([C@@H]3C[C@H]4C[C@H]4N3C(=O)c3ccccc3-n3nccn3)[nH]c2c1` [Compound 2] were more than 10000 nM and 72 nM.
In the same order, the values of `COc1ccc2nc([C@@H]3C[C@H]4C[C@H]4N3C(=O)c3cc(C)ccc3-n3nccn3)[nH]c2c1` [Compound 7] are 877 nM and 24 nM.
For the compound `COc1ccc2nc([C@@H]3C[C@H]4C[C@H]4N3C(=O)c3ccc(F)cc3-n3nccn3)[nH]c2c1` [Compound 9], the IC50 was determined as 3170 nM in assay [1] and 42 nM in assay [2].
Consider `COc1ccc(-n2nccn2)c(C(=O)N2C[C@@H]3C[C@@H]3[C@H]2c2nc3ccc(OC)cc3[nH]2)c1` [Compound 4], for which the figures for the IC50 in assay [1] and in assay [2] were 462 nM and 64 nM, respectively.
Taken in the same sequence, the figures for `COc1ccc2[nH]c([C@@H]3C[C@H]4C[C@H]4N3C(=O)c3cc(F)ccc3-n3nccn3)nc2c1` [Compound 11] were 3600 nM and 33 nM.
Turning to `COc1ccc2nc([C@@H]3[C@H]4C[C@H]4CN3C(=O)c3c(F)cccc3-n3nccn3)[nH]c2c1` [Compound 6], the IC50 was found to be 1420 nM in assay [1] and 299 nM in assay [2].
